Publication PMC8056227, “Deverra tortuosa (Desf.) DC from Saudi Arabia as a new source of marmin and furanocoumarins derivatives with α-glucosidase, antibacterial and cytotoxic activities” (Heliyon, 2021)

What was measured:
α-glucosidase = assay: α-Glucosidase inhibitory activity (PNPG substrate); format: biochemical; conditions: pH 6.8, 37 °C, 30 min
Experimental: (2013)]. The substrate P-nitrophenyl-α-D-glucopyranoside (PNPG) was used for this experiment. Dimethyl sulfoxide (DMSO) was used to prepare different concentrations of the compounds (10–1000 μM). […] Afterwards, 40 μL of PNPG solution (0.375 mM) prepared in phosphate buffer (pH = 6.8) was added to the mixture and then incubated (37 °C for 30 min). 80 μL of Na2CO3 (0.2 M) prepared in phosphate buffer was added to the mixture. The absorbance was measured at 405 nm, and the measurement was replicated 3 times. The percentage of inhibition (%) reflects the α-glucosidase inhibitory activity and was calculated by formula (I):(I) α-glucosidase inhibition activity (%) = [(Acontrol – Asample)/Acontrol] × 100where Asample is the absorbance (405 nm) in the presence of the isolated compound and Acontrol is the absorbance (405 nm) of the control (A control consists of 20 μL potassium phosphate buffer instead of α-glucosidase solution).

[1] = system: MCF-7 (breast cancer) cells; assay: MTT cytotoxicity assay, MCF-7; format: cell-based; conditions: Homo sapiens, MCF7, 72 h, read-out: percentage of inhibition, MCF-7
Experimental: (§1) In the present study, two cancer cell lines were tested: HCT116 (colorectal carcinoma) and MCF-7 (breast cancer) (American Type Culture Collection, USA). Fetal calf serum (FCS: 10 %) and L-glutamine (2 mM) were used to make complete growth medium to conserve the cell lines (RPMI: Roswell Park Memorial Institute, France). Cell lines were incubated at 37 °C under atmosphere conditions of CO2 (5%). All tests were performed when the cells reached 80% confluence, and a trypan blue exclusion assay was used to test the viability of the cell lines ([Louis and Siegel, 2011]).
The cytotoxicity of the isolated compounds against HCT116 (colorectal carcinoma) and MCF-7 (breast cancer) cells was evaluated spectrophotometrically through an MTT assay. The assay was performed in 96-well microtiter plates ([Bekir et al., 2013]). The concentrations of HCT-116 and MCF-7 cells were fixed at 10 × 10^3 and 12 × 10^3 cells/well, respectively. The adherent cells were incubated overnight (37 °C) in a 5% enriched CO2 atmosphere. […] After removing the medium, incubated cells (37 °C) were mixed with 50 μL of MTT solution (3 mg/mL in phosphate-buffered saline, PBS) for 20–40 min. The […] proceeded by adding 80 μL of 100% DMSO. The measurement of the obtained reaction was taken spectrophotometrically at 540 nm. As a positive control, Doxorubicin, a conventional anticancer drug, was used. Cell viability was measured using formula II:II % Inhibition = […]where Abs control is the absorbance measured of the total cell activity as described without any inhibition; Abs blank control is the absorbance of MTT substrate; and Abs sample is the absorbance of each inhibitor compound sample.

[2] = system: HCT116 (colorectal carcinoma) cells; assay: MTT cytotoxicity assay, HCT116; format: cell-based; conditions: Homo sapiens, HCT-116, 72 h, read-out: percentage of inhibition, HCT-116
Experimental: as §1
The cytotoxicity of the isolated compounds against HCT116 (colorectal carcinoma) and MCF-7 (breast cancer) cells was evaluated spectrophotometrically through an MTT assay. The assay was performed in 96-well microtiter plates ([Bekir et al., 2013]). The concentrations of HCT-116 and MCF-7 cells were fixed at 10 × 10^3 and 12 × 10^3 cells/well, respectively. The adherent cells were incubated overnight (37 °C) in a 5% enriched CO2 atmosphere. […] Cell viability was measured using formula II:II % Inhibition = 100∗[(Abs control – Abs blank control)/(Abs sample- Abs blank sample)]where Abs control is the absorbance measured of the total cell activity as described without any inhibition; Abs blank control is the absorbance of MTT substrate; and Abs sample is the absorbance of each inhibitor compound sample.

[3] = system: Escherichia. coli: ATCC 25922; design: method as in Tsassi et al., 2010; conditions: previous studies on marmin; ref Tsassi et al., 2010; cited from earlier work
[4] = system: Salmonella typhimurium: ATCC 14028; assay: Antibacterial well diffusion, S. typhimurium; format: cell-based; design: dose or concentration left out as unconfirmed
Description: (§2) ATCC strains (American Type Culture Collection) were purchased from BD (Becton, Dickinson and Company). These strains were primarily activated in brain heart infusion broth and then grown on nonselective media nutrient agar (NA). A total of 7 bacterial strains (Escherichia. coli: ATCC 25922, Klebsiella pneumonia: ATCC 700603, Proteus mirabilis: ATCC 14153, Salmonella typhimurium: ATCC 14028, Pseudomonas aeruginosa: ATCC 254992, Staphylococcus aureus: ATCC 254996 and Enterococcus faecalis: ATCC 29212) were tested for antibacterial activity.
(§3) The 0.5 Macfarland standards were used to prepare the bacterial inoculum from log phase bacterial growth. Muller-Hinton agar (MHA) media plates were prepared aseptically in a safety cabinet; the medium was used to evaluate antibacterial activity. Sterile cork borer was used to make five wells (6 mm). MHA medium was swabbed with fresh culture (24 h ATCC bacterial strains). […] As a positive control, 15 μg of tetracycline was used and the negative control consists of 50 μL DMSO. The test was conducted with 3 replications. The plates were incubated according to Clinical and Laboratory Standards Institute guidelines ([CLSI 2017]) and the experiments were carried out aerobically at 35–37 °C for 18–20 h. The diameter of the inhibition zone around the wells was measured using a ruler, and the mean and standard deviation were calculated for three readings.

[5] = system: Enterococcus faecalis: ATCC 29212; assay: Antibacterial well diffusion, E. faecalis; format: cell-based; design: dose or concentration left out as unconfirmed
Description: as §2, §3

[6] = system: Escherichia. coli: ATCC 25922; assay: Antibacterial well diffusion, E. coli; format: cell-based; design: dose or concentration left out as unconfirmed; conditions: ATCC25922, range stated over 3 compounds and 3 strains
Description: as §2
(§4) The 0.5 Macfarland standards were used to prepare the bacterial inoculum from log phase bacterial growth. Muller-Hinton agar (MHA) media plates were prepared aseptically in a safety cabinet; the medium was used to evaluate antibacterial activity. Sterile cork borer was used to make five wells (6 mm). MHA medium was swabbed with fresh culture (24 h ATCC bacterial strains). 50 μL of the tested compounds (0.5 mg/mL) prepared in DMSO were dispensed in the wells. As a positive control, 15 μg of tetracycline was used and the negative control consists of 50 μL DMSO. The test was conducted with 3 replications. The plates were incubated according to Clinical and Laboratory Standards Institute guidelines ([CLSI 2017]) and the experiments were carried out aerobically at 35–37 °C for 18–20 h. The diameter of the inhibition zone around the wells was measured using a ruler, and the mean and standard deviation were calculated for three readings.

[7] = system: Pseudomonas aeruginosa: ATCC 254992; assay: Antibacterial well diffusion, P. aeruginosa; format: cell-based; design: dose or concentration left out as unconfirmed; conditions: ATCC254992, range stated over 3 compounds and 3 strains
Description: as §2, §4

[8] = system: Klebsiella pneumonia: ATCC 700603; assay: Antibacterial well diffusion, K. pneumonia; format: cell-based; design: zone of inhibition: dose or concentration left out as unconfirmed; conditions: for antibacterial activity in words, K. pneumonia: 1 mg/mL; for zone of inhibition: Klebsiella pneumoniae, ATCC700603, range stated over 3 compounds and 3 strains
Description: as §2, §3

[9] = system: Proteus mirabilis: ATCC 14153; assay: Antibacterial well diffusion, P. mirabilis; format: cell-based; design: dose or concentration left out as unconfirmed
Description: as §2, §3

Which results are given for `C/C(=C\COc1ccc2ccc(=O)oc2c1)CC[C@@H](O)C(C)(C)O` [Compound 1, Marmin]?
IC50 (α-glucosidase): 186 ± 8.3 µM; inhibition at 100 µM [1]: 17.1%; inhibition at 100 µM [2]: 41.8%; inhibition zone, E. coli (previous studies) [3]: 9.5 mm

What does the source list for `CC(=CCOc1ccc2ccc(=O)oc2c1)CCC(O)C(C)(C)OC1OC(CO)C(O)C(O)C1O` (stereo not drawn) [Compound 2, Pituranthoside]?
IC50 (α-glucosidase): 347 ± 11.2 µM; inhibition at 100 µM [1]: 29.9%; inhibition at 100 µM [2]: 42.7%; zone of inhibition ([4]; Salmonella enterica, read-out: inhibition zone (IZ), S. typhimurium): 21 mm; zone of inhibition ([5]; Enterococcus faecalis, ATCC29212, read-out: inhibition zone (IZ), E. faecalis): 22 mm

With `CC(C)=CCOc1c2ccoc2cc2oc(=O)ccc12` [Compound 3, Isoimperatorin] as the compound, how does the IC50 (α-glucosidase) read?
Its IC50 is 171 ± 7.6 µM.

What about the inhibition at 100 µM [1] of the same compound?
Its inhibition at 100 µM is 43.2%.

And the “antibacterial activity in words, S. typhimurium” value [4]?
The value was “did not seem to be active”.

What about the “antibacterial activity in words, E. faecalis” value [5] of the same compound?
The value was “did not seem to be active”.

And the zone of inhibition [6]?
Its zone of inhibition is 6 to 12 mm.

And the zone of inhibition [7]?
The zone of inhibition was 6 to 12 mm.

And the “antibacterial activity in words, K. pneumonia” value [8]?
The value was “did not seem to be active”.

And the zone of inhibition [8]?
Its zone of inhibition is 6 to 12 mm.

What about the “antibacterial activity in words, P. mirabilis” value [9] of the same compound?
The value was “did not seem to be active”.

Which “antibacterial activity in words, S. typhimurium” value [4] does the source give for `COc1c2ccoc2cc2oc(=O)ccc12` [Compound 4, Bergapten] here?
The value was “did not seem to be active”.

What about the “antibacterial activity in words, E. faecalis” value [5] of the same compound?
The value was “did not seem to be active”.

What about the zone of inhibition [6] of the same compound?
The zone of inhibition was 6 to 12 mm.

And the zone of inhibition [7]?
The zone of inhibition was 6 to 12 mm.

And the “antibacterial activity in words, K. pneumonia” value [8]?
Its value is “did not seem to be active”.

What about the zone of inhibition [8] of the same compound?
Its zone of inhibition is 6 to 12 mm.

What about the “antibacterial activity in words, P. mirabilis” value [9] of the same compound?
The value was “did not seem to be active”.

For `COc1c2ccoc2c(OC)c2oc(=O)ccc12` [Compound 5, Isopimpinellin], which inhibition at 100 µM [1] is on record?
Its inhibition at 100 µM is 30.6%.

What about the “antibacterial activity in words, S. typhimurium” value [4] of the same compound?
The value was “did not seem to be active”.

What about the “antibacterial activity in words, E. faecalis” value [5] of the same compound?
Its value is “did not seem to be active”.

What about the zone of inhibition [6] of the same compound?
The zone of inhibition was 6 to 12 mm.

What about the zone of inhibition [7] of the same compound?
Its zone of inhibition is 6 to 12 mm.

And the “antibacterial activity in words, K. pneumonia” value [8]?
Its value is “did not seem to be active”.

What about the zone of inhibition [8] of the same compound?
Its zone of inhibition is 6 to 12 mm.

And the “antibacterial activity in words, P. mirabilis” value [9]?
Its value is “did not seem to be active”.
